Results reported in PubChem BioAssay (NCI).
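Values below derive from 48-hour exposures of cells grown in 96-well plates, with endpoints linearly interpolated between the two concentrations bracketing the appropriate inhibition level. TGI: total growth inhibition.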

What was measured:
Assay in all cases: DTP human tumour cell line panel, 48 h
[1] = test system: BT-549 breast
[2] = test system: SNB-75 CNS
[3] = test system: DU-145 prostate
[4] = test system: MCF7 breast
[5] = test system: UO-31 renal
[6] = test system: NCI-H226 lung
[7] = test system: COLO 205 colon
[8] = test system: SF-539 CNS
[9] = test system: HCT-15 colon
[10] = test system: RPMI-8226 leukemia
[11] = test system: CAKI-1 renal
[12] = test system: HOP-62 NSCLC
[13] = test system: CCRF-CEM leukemia
[14] = test system: OVCAR-8 ovarian
[15] = test system: KM12 colon
[16] = test system: 786-0 renal
[17] = test system: SF-295 CNS
[18] = test system: K-562 leukemia
[19] = test system: NCI-H460 lung
[20] = test system: MDA-MB-231 breast

O=C1NC(=NC2CCCCC2)C2(CCN(CCCC3(c4ccc(F)cc4)OCCO3)CC2)N1c1ccccc1
TGI [1]: 18.5 µM
TGI [2]: 29.8 µM
TGI [3]: 33.8 µM
TGI [4]: 48.3 µM
TGI [5]: 25.9 µM
TGI [6]: 44.3 µM
TGI [7]: 38.4 µM
TGI [8]: 30.7 µM
TGI [9]: 36.9 µM
TGI [10]: 64.5 µM
TGI [11]: 50.3 µM
TGI [12]: 31.8 µM
TGI [13]: > 100 µM
TGI [14]: 64.9 µM
TGI [15]: 38.9 µM
TGI [16]: 30.2 µM
TGI [17]: 35.1 µM

FC(F)(F)C1(C(F)(F)F)O[SiH]2(OC(C(F)(F)F)(C(F)(F)F)c3ccccc32)c2ccccc21
TGI [5]: 30.7 µM
TGI [6]: 20.3 µM
TGI [7]: 45.2 µM
TGI [8]: 25.4 µM
TGI [9]: 25.9 µM
TGI [10]: 97.4 µM
TGI [11]: 87.1 µM
TGI [14]: 83.9 µM
TGI [15]: 62.5 µM
TGI [16]: 31.7 µM
TGI [17]: 20.3 µM
TGI [18]: 31.6 µM
TGI [19]: 25.5 µM

CC1CC(C)(O)CC(C(O)CC2CC(=O)NC(=O)C2)C1=O (stereo not drawn)
TGI [2]: 1.27 µM
TGI [3]: 1.85 µM
TGI [4]: 0.686 µM
TGI [5]: 1.16 µM
TGI [6]: 0.764 µM
TGI [7]: 1.01 µM
TGI [8]: 0.226 µM
TGI [9]: 2.94 µM
TGI [10]: 0.564 µM
TGI [11]: 0.0916 µM
TGI [12]: 0.449 µM
TGI [13]: 1.53 µM
TGI [14]: 2.89 µM
TGI [15]: 1.41 µM
TGI [16]: 0.741 µM
TGI [17]: 0.142 µM
TGI [20]: 0.0651 µM
TGI [18]: 0.706 µM
TGI [19]: 1.76 µM

CCOC(=O)C(=CNC(=S)Nc1c(CC)cccc1CC)C(=O)OCC
TGI [2]: 92.6 µM
TGI [3]: > 100 µM
TGI [4]: > 100 µM
TGI [5]: > 100 µM
TGI [6]: > 100 µM
TGI [7]: > 100 µM
TGI [8]: > 100 µM
TGI [10]: > 100 µM
TGI [11]: > 100 µM
TGI [12]: > 100 µM
TGI [13]: > 100 µM
TGI [14]: > 100 µM
TGI [15]: > 100 µM
TGI [16]: > 100 µM
TGI [17]: > 100 µM
TGI [20]: > 100 µM
TGI [18]: > 100 µM
TGI [19]: > 100 µM

[C-]#[N+]C1(C(=O)OCC)CC1
TGI [2]: > 100 µM
TGI [3]: > 100 µM
TGI [4]: > 100 µM
TGI [6]: > 100 µM
TGI [8]: > 100 µM
TGI [9]: > 100 µM
TGI [10]: > 100 µM
TGI [12]: > 100 µM
TGI [13]: > 100 µM
TGI [14]: > 100 µM
TGI [16]: > 100 µM
TGI [17]: > 100 µM
TGI [18]: > 100 µM
TGI [19]: > 100 µM

O=S1c2ccccc2SCSc2ccccc21
TGI [3]: > 100 µM
TGI [4]: > 100 µM
TGI [5]: > 100 µM
TGI [7]: > 100 µM
TGI [8]: > 100 µM
TGI [9]: > 100 µM
TGI [10]: 70.1 µM
TGI [11]: > 100 µM
TGI [12]: > 100 µM
TGI [14]: > 100 µM
TGI [15]: > 100 µM
TGI [16]: > 100 µM
TGI [17]: > 100 µM
TGI [20]: > 100 µM
TGI [18]: 75.8 µM
TGI [19]: > 100 µM

COc1ccc(CCc2ccccc2CC(=O)O)cc1
TGI [2]: > 100 µM
TGI [5]: > 100 µM
TGI [6]: > 100 µM
TGI [7]: > 100 µM
TGI [8]: > 100 µM
TGI [9]: > 100 µM
TGI [10]: > 100 µM
TGI [11]: > 100 µM
TGI [13]: > 100 µM
TGI [14]: > 100 µM
TGI [15]: > 100 µM
TGI [16]: > 100 µM
TGI [17]: > 100 µM
TGI [18]: > 100 µM
TGI [19]: > 100 µM

N#CC(NNC(=O)c1ccccc1O)c1ccccc1 (stereo not drawn)
TGI [2]: > 100 µM
TGI [5]: 6.03 µM
TGI [6]: 76.6 µM
TGI [7]: > 100 µM
TGI [8]: > 100 µM
TGI [9]: > 100 µM
TGI [10]: > 100 µM
TGI [11]: > 100 µM
TGI [12]: > 100 µM
TGI [13]: > 100 µM
TGI [14]: > 100 µM
TGI [15]: > 100 µM
TGI [16]: > 100 µM
TGI [17]: > 100 µM
TGI [18]: > 100 µM
TGI [19]: > 100 µM

O=[N+]([O-])/C=C/COCc1cc2c(cc1Br)OCO2
TGI [2]: 31.7 µM
TGI [3]: 35.5 µM
TGI [4]: 33.5 µM
TGI [5]: 32.3 µM
TGI [7]: 43.6 µM
TGI [8]: 63.6 µM
TGI [9]: 34.3 µM
TGI [10]: > 100 µM
TGI [11]: 35.6 µM
TGI [12]: 41.9 µM
TGI [13]: 11.5 µM
TGI [14]: > 100 µM
TGI [15]: 33.8 µM
TGI [16]: 30.6 µM
TGI [17]: > 100 µM
TGI [20]: 33 µM
TGI [18]: > 100 µM
TGI [19]: > 100 µM

O=C(NCC(C(=O)OCc1ccccc1)C(=O)OCc1ccccc1)OCc1ccccc1
TGI [1]: > 100 µM
TGI [2]: > 100 µM
TGI [3]: > 100 µM
TGI [4]: > 100 µM
TGI [5]: > 100 µM
TGI [6]: > 100 µM
TGI [7]: > 100 µM
TGI [8]: > 100 µM
TGI [9]: > 100 µM
TGI [10]: > 100 µM
TGI [11]: > 100 µM
TGI [12]: > 100 µM
TGI [14]: > 100 µM
TGI [15]: > 100 µM
TGI [16]: > 100 µM
TGI [17]: > 100 µM
TGI [18]: > 100 µM
TGI [19]: > 100 µM

Nc1nc(Cl)cc(NCCCCCCCCCCCCNc2cc(Cl)nc(N)n2)n1
TGI [2]: 34 µM
TGI [5]: > 100 µM
TGI [6]: 66.9 µM
TGI [7]: > 100 µM
TGI [8]: 72.5 µM
TGI [9]: > 100 µM
TGI [10]: > 100 µM
TGI [12]: 35.2 µM
TGI [13]: > 100 µM
TGI [14]: 44 µM
TGI [15]: > 100 µM
TGI [17]: 32.7 µM
TGI [18]: > 100 µM
TGI [19]: > 100 µM
